The assay addresses T1, human ENT1 (Homo sapiens, UniProt Q99808).
T1 construct: JAR cells expressing ENT1 were purchased from ATCC; host or cells: JAR cells
T1 sequence (Q99808 1-456): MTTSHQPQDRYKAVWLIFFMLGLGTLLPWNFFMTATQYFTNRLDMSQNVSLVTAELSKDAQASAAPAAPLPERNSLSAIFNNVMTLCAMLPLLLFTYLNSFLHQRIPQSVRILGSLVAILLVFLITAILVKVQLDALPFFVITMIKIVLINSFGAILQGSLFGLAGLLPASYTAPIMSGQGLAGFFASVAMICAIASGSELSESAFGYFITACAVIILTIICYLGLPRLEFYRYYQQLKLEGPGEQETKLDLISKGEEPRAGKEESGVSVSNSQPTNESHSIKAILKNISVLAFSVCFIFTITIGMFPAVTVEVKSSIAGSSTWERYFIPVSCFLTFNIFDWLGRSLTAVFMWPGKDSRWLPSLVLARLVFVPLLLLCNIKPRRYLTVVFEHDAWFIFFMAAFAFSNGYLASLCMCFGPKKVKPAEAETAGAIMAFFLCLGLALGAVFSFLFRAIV
Briefly: ENT1 binding assay (competition with Sahenta-DY647 on JAR cells). As to conditions: competition with SAHENTA-DY647 binding; IC50 categorized; read-out: Binding Assay IC50. Here is the method: Compounds of the present disclosure were assayed to show ability to bind to human ENT1. The assay is a competition between a compound of interest and Sahenta-DY647, an ENT1 inhibitor that emits fluorescence (Ex=630 nm, Em=670 nm). By measuring the fluorescence at the end of the assay, one can assess the binding potency of the compounds tested. The compounds of the present disclosure were tested and compared to known ENT inhibitors, dilazep and NBMPR:
JAR cells expressing ENT1 were purchased from ATCC® (HTB-144TM). Cells were cultured in RPMI 1640 medium (LONZA®, #BE12-702F/U1) supplemented with 10% FBS (GIBCO®, #10270-106), 10 mM Hepes (LONZA®, #BE17-737E), 1 mM Sodium Pyruvate (LONZA®, #BE13-115E), and 2% Penicillin/Streptomycin (LONZA®, #DE17-603E) at 37° C. and 5% CO2.
The assay was conducted with the following buffer on the day of the assay: HBSS (LONZA®, #LO-527F) supplemented with 10 mM Hepes (LONZA®, #BE17-737E) and 0.1% BSA (Miltenyi®, #130-091-376).
JAR cells were resuspended in the described buffer. The compounds of interest and Sahenta-DY647 were diluted 200× with the described buffer.
A total of 50,000 cells were pre-incubated for 30 min at 4° C. with the compounds of the present disclosure before adding the corresponding amount of Sahenta-DY647 (100 nM) to the minimal concentration at Bmax and incubating for an additional 30 min at 4° C. The total volume of the reaction was 100 μL (50 μL of cells, 25 μL of the compounds of the present disclosure, and 25 μL of Sahenta-DY647) in a U-bottom 96 well plate (Greiner®, #650-180). The plates were washed 2× by centrifugation (4 min, 400 rcf at 4° C.) in the same buffer. Cells were re-suspended in 70 μL of the buffer and 50 μL was transferred to a Black 384 Optiplate (PerkinElmer®, #6007279). Fluorescence (Ex=630 nm, Em=670 nm) was acquired on a Spectramax i3x (Molecular Devices®).
Dose-response data from the compounds were analyzed with Graphpad Prism 9.1.1@software, using nonlinear regression applied to a sigmoidal dose-response model and the following equation:
Y=Bottom+(Top-Bottom)/(1+10^((LogIC50−X)*HillSlope)), with a shared bottom and top between the test reagent and dipyridamole.
Data from multiple experiments were compiled by taking the average pIC50 value for the reagent in question±the standard deviation (s.d.) and expressing it as an average IC50 value in nM.
The inhibitory effect of the test compound was expressed as a percentage of the inhibition of SAHENTA-DY647 binding.
In general, IC50 refers to the point on the concentration scale where inhibition reaches its midpoint. In the case of `C[C@H]1O[C@@H](n2c(NC3CCCC3)nc3c(OCc4ccc([N+](=O)[O-])nc4)ncnc32)[C@H](O)[C@@H]1O` [Compound 85], the IC50 is below 1 nM.

Consider `Cc1cc(COc2ncnc3c2nc(NC2CCCC2)n3[C@@H]2O[C@H](C)[C@@H](O)[C@H]2O)ccc1[N+](=O)[O-]` [Compound 86], for which the IC50 is below 1 nM. With `C[C@H]1O[C@@H](n2c(NC3CCCC3)nc3c(OCc4ccc(OC(F)(F)F)cc4)ncnc32)[C@H](O)[C@@H]1O` [Compound 88], the IC50 lay within 1 to 20 nM. Take `Cc1ccc(COc2ncnc3c2nc(NC2CCCC2)n3[C@@H]2O[C@H](C)[C@@H](O)[C@H]2O)cc1` [Compound 90]: the concentration for half-maximal inhibition (IC50) lay in the range of 1 to 20 nM. For `C[C@H]1O[C@@H](n2c(NC3CCCC3)nc3c(OCc4ccc(Cl)cc4)ncnc32)[C@H](O)[C@@H]1O` [Compound 91] the value was 1 to 20 nM; for `C[C@H]1O[C@@H](n2c(NC3CCCC3)nc3c(OCc4ccc(C(F)(F)F)cc4)ncnc32)[C@H](O)[C@@H]1O` [Compound 92], 1 to 20 nM; for `C[C@H]1O[C@@H](n2c(NC3CCCC3)nc3c(OCc4ccc(C(F)(F)F)nc4)ncnc32)[C@H](O)[C@@H]1O` [Compound 93], 20 to 500 nM. For `C[C@H]1O[C@@H](n2c(NC3CCCC3)nc3c(OCc4ccc(C(F)F)cc4)ncnc32)[C@H](O)[C@@H]1O` [Compound 94] the value was 1 to 20 nM.

Consider `C[C@H]1O[C@@H](n2c(NC3CCCC3)nc3c(OCc4ccc(C(F)F)nc4)ncnc32)[C@H](O)[C@@H]1O` [Compound 95], for which the IC50 fell in the range of 1 to 20 nM. As to `CC(CCO)Nc1nc2c(OCc3ccc(C(F)(F)F)cc3)ncnc2n1[C@@H]1O[C@H](C)[C@@H](O)[C@H]1O` (stereo partly drawn) [Compound 96], the concentration for half-maximal inhibition (IC50) is 1 to 20 nM. As for `CC(CCO)Nc1nc2c(OCc3ccc(Cl)cc3)ncnc2n1[C@@H]1O[C@H](C)[C@@H](O)[C@H]1O` (stereo partly drawn) [Compound 97], the IC50 fell in the range of 1 to 20 nM.

For the molecule `CC(CCO)Nc1nc2c(OCc3ccc(F)cc3)ncnc2n1[C@@H]1O[C@H](C)[C@@H](O)[C@H]1O` (stereo partly drawn) [Compound 98], the IC50 was in the range of 1 to 20 nM. In the case of `CC(CCO)Nc1nc2c(OCc3ccc(OC(F)(F)F)cc3)ncnc2n1[C@@H]1O[C@H](C)[C@@H](O)[C@H]1O` (stereo partly drawn) [Compound 99], the concentration for half-maximal inhibition (IC50) is 1 to 20 nM.

Regarding `C[C@H]1O[C@@H](n2c(NC3CCC(O)C3)nc3c(OCc4ccc(Cl)cc4)ncnc32)[C@H](O)[C@@H]1O` (stereo partly drawn) [Compound 101], the IC50 is 20 to 500 nM. To `C[C@H]1O[C@@H](n2c(NC3CCC(O)C3)nc3c(OCc4ccc(F)cc4)ncnc32)[C@H](O)[C@@H]1O` (stereo partly drawn) [Compound 102] belongs 1 to 20 nM; to `C[C@H]1O[C@@H](n2c(NCC3CC(F)(F)C3)nc3c(OCc4ccc(C#N)cc4)ncnc32)[C@H](O)[C@@H]1O` [Compound 104], 1 to 20 nM. As to `C[C@H]1O[C@@H](n2c(NCC3CCC(F)(F)C3)nc3c(OCc4ccc(C#N)cc4)ncnc32)[C@H](O)[C@@H]1O` (stereo partly drawn) [Compound 105], the 50% inhibitory concentration (IC50) is 1 to 20 nM. To `C[C@H]1O[C@@H](n2c(NCC3CCC(F)(F)CC3)nc3c(OCc4ccc(C#N)cc4)ncnc32)[C@H](O)[C@@H]1O` [Compound 106] belongs 1 to 20 nM; to `C[C@H]1O[C@@H](n2c(NCC3COC3)nc3c(OCc4ccc(C#N)cc4)ncnc32)[C@H](O)[C@@H]1O` [Compound 107], 20 to 500 nM. Consider `C[C@H]1O[C@@H](n2c(NCC3CCOCC3)nc3c(OCc4ccc(C#N)cc4)ncnc32)[C@H](O)[C@@H]1O` [Compound 109], for which the IC50 lay within 1 to 20 nM. For `C[C@H]1O[C@@H](n2c(NCC3CCOC3)nc3c(OCc4ccc(Cl)cc4)ncnc32)[C@H](O)[C@@H]1O` (stereo partly drawn) [Compound 110], the IC50 was 20 to 500 nM. For the molecule `C[C@H]1O[C@@H](n2c(NCC3CCOCC3)nc3c(OCc4ccc(Cl)cc4)ncnc32)[C@H](O)[C@@H]1O` [Compound 111], the half-maximal inhibitory concentration (IC50) lay within 20 to 500 nM. Consider `C[C@H]1O[C@@H](n2c(N[C@H]3C[C@@](C)(O)C3)nc3c(OCc4ccc(C#N)cc4)ncnc32)[C@H](O)[C@@H]1O` [Compound 119], for which the IC50 lay in the range of 20 to 500 nM. For `C[C@H]1O[C@@H](n2c(N[C@H]3C[C@](C)(O)C3)nc3c(OCc4ccc(C#N)cc4)ncnc32)[C@H](O)[C@@H]1O` [Compound 120], the 50% inhibitory concentration (IC50) is below 1 nM. `C[C@H]1O[C@@H](n2c(N[C@H]3CC[C@@](C)(O)CC3)nc3c(OCc4ccc(OC(F)F)cc4)ncnc32)[C@H](O)[C@@H]1O` [Compound 122]: the concentration for half-maximal inhibition (IC50) lay in the range of 1 to 20 nM. With `C[C@H]1O[C@@H](n2c(N[C@H]3C[C@@](C)(O)C3)nc3c(OCc4ccc(OC(F)F)cc4)ncnc32)[C@H](O)[C@@H]1O` [Compound 123], the half-inhibitory concentration (IC50) fell in the range of 1 to 20 nM. Regarding `C[C@H]1O[C@@H](n2c(N[C@H]3C[C@](C)(O)C3)nc3c(OCc4ccc(OC(F)F)cc4)ncnc32)[C@H](O)[C@@H]1O` [Compound 124], the IC50 was below 1 nM. As to `C[C@H]1O[C@@H](n2c(N[C@H]3CC[C@](C)(O)CC3)nc3c(OCc4ccc(C(F)(F)F)cc4)ncnc32)[C@H](O)[C@@H]1O` [Compound 125], the half-inhibitory concentration (IC50) is 1 to 20 nM. As for `C[C@H]1O[C@@H](n2c(N[C@H]3CC[C@@](C)(O)CC3)nc3c(OCc4ccc(C(F)(F)F)cc4)ncnc32)[C@H](O)[C@@H]1O` [Compound 126], the IC50 is 1 to 20 nM.

As for `C[C@H]1O[C@@H](n2c(N[C@H]3CC[C@](C)(O)CC3)nc3c(OCc4ccc(Cl)cc4)ncnc32)[C@H](O)[C@@H]1O` [Compound 127], the half-maximal inhibitory concentration (IC50) was in the range of 20 to 500 nM. Turning to `C[C@H]1O[C@@H](n2c(N[C@H]3CC[C@@](C)(O)CC3)nc3c(OCc4ccc(Cl)cc4)ncnc32)[C@H](O)[C@@H]1O` [Compound 128], the IC50 lay in the range of 1 to 20 nM.

Turning to `C[C@H]1O[C@@H](n2c(N[C@H]3CC[C@](C)(O)CC3)nc3c(OCc4ccc(F)cc4)ncnc32)[C@H](O)[C@@H]1O` [Compound 129], the 50% inhibitory concentration (IC50) was 1 to 20 nM. Consider `C[C@H]1O[C@@H](n2c(N[C@H]3CC[C@@](C)(O)CC3)nc3c(OCc4ccc(F)cc4)ncnc32)[C@H](O)[C@@H]1O` [Compound 130], for which the 50% inhibitory concentration (IC50) lay within 1 to 20 nM. Consider `C[C@H]1O[C@@H](n2c(N[C@H]3CC[C@@](C)(O)CC3)nc3c(OCc4ccc(C#N)cc4)ncnc32)[C@H](O)[C@@H]1O` [Compound 131], for which the half-maximal inhibitory concentration (IC50) was 1 to 20 nM. Take `C[C@H]1O[C@@H](n2c(N[C@H]3CC[C@](C)(O)CC3)nc3c(OCc4ccc(C#N)cc4)ncnc32)[C@H](O)[C@@H]1O` [Compound 132]: the half-inhibitory concentration (IC50) lay within 1 to 20 nM. For the molecule `O=[N+]([O-])c1ccc(COc2ncnc3c2nc(NC2CCCC2)n3[C@@H]2O[C@H](COCCO)[C@@H](O)[C@H]2O)cc1` [Compound 135], the IC50 fell in the range of 20 to 500 nM. For the molecule `C[C@H]1O[C@@H](n2c(NC3CCS(=O)(=O)CC3)nc3c(N4CCc5ccc([N+](=O)[O-])cc5C4)ncnc32)[C@H](O)[C@@H]1O` [Compound 136], the IC50 is below 1 nM.

`C[C@H]1O[C@@H](n2c(NCc3cnn(C)c3)nc3c(N4CCc5ccc([N+](=O)[O-])cc5C4)ncnc32)[C@H](O)[C@@H]1O` [Compound 138]: the IC50 is below 1 nM. For `C[C@H]1O[C@@H](n2c(N[C@H]3CC[C@@](C)(O)CC3)nc3c(N4CCc5ccc([N+](=O)[O-])cc5C4)ncnc32)[C@H](O)[C@@H]1O` [Compound 139] the value was below 1 nM; for `C[C@H]1O[C@@H](n2c(NC3CCC(O)CC3)nc3c(N4CCc5ccc([N+](=O)[O-])cc5C4)ncnc32)[C@H](O)[C@@H]1O` (stereo partly drawn) [Compound 140], below 1 nM. To `C[C@H]1O[C@@H](n2c(Nc3cnn(C)c3)nc3c(N4CCc5ccc([N+](=O)[O-])cc5C4)ncnc32)[C@H](O)[C@@H]1O` [Compound 142] belongs below 1 nM; to `C[C@H]1O[C@@H](n2c(NCCCS(C)(=O)=O)nc3c(N4CCc5ccc([N+](=O)[O-])cc5C4)ncnc32)[C@H](O)[C@@H]1O` [Compound 143], below 1 nM.

The values are drawn from US20260184712A1, “Heterocyclic Compounds as ENT Inhibitors and Compounds for Use in the Treatment of Cancers” (iTeos Belgium SA, priority 2022, published 2026).
